Measurements published in ChEMBL document CHEMBL1136862, “Development of thioquinazolinones, allosteric Chk1 kinase inhibitors” (Bioorg Med Chem Lett, 2009).

Each molecule was assayed against T1, Serine/threonine-protein kinase Chk1 (Homo sapiens, UniProt O14757) (assay: Inhibition of C-terminal 6-His tagged human Chk1 by HTRF assay in presence of 2.0 mM ATP).
T1 sequence (O14757 whole entry): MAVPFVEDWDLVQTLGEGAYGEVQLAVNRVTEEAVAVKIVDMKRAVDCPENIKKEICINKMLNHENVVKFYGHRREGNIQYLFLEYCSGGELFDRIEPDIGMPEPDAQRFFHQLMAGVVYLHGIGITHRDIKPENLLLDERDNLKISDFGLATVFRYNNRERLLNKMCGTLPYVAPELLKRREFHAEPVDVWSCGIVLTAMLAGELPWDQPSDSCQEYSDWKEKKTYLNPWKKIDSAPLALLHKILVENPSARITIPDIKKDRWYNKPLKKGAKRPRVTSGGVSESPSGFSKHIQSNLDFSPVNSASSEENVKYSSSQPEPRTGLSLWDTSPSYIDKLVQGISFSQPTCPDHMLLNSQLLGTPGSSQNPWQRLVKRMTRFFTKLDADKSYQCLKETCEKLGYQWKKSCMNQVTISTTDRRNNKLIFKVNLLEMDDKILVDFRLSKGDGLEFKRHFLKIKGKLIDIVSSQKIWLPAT

| IC50 | SMILES |
| --- | --- |
| 24 µM | CCCCC(Sc1nc2ccccc2c(=O)n1-c1ccccc1)C(=O)N1CCC(C(N)=O)CC1 (stereo not drawn) |

Each molecule was assayed against T2, Serine/threonine-protein kinase Chk1 (Homo sapiens) (UniProt O14757) (assay: Inhibition of C-terminal 6-His tagged human Chk1 at 100 uM by HTRF assay in presence of 0.1 mM ATP).
T2 sequence (whole entry): T1 sequence (O14757 whole entry)

| inhibition | SMILES |
| --- | --- |
| 20% | CCCCC(Sc1nc2ccccc2c(=O)n1-c1ccnc(Cl)c1)C(=O)N1CCC(C(N)=O)CC1 (stereo not drawn) |
| 30% | CCCCC(Sc1nc2ccc(C)cc2c(=O)n1-c1cccc(Cl)c1)C(=O)N1CCC(C(N)=O)CC1 (stereo not drawn) |
| 35% | CCCCC(Sc1nc2ccccc2c(=O)n1-c1cccnc1)C(=O)N1CCC(C(N)=O)CC1 (stereo not drawn) |

The next lines start with the molecule.

| SMILES | inhibition |
| --- | --- |
| CCCCC(Sc1nc2ccccc2c(=O)n1-c1ccccc1)C(=O)N(CC)CC (stereo not drawn) | 62% |
| CCCCC(Sc1nc2ccccc2c(=O)n1C1CCCCC1)C(=O)N1CCC(C(N)=O)CC1 (stereo not drawn) | 17% |
| CCCCC(Sc1nc2ccccc2c(=O)n1Cc1cccnc1)C(=O)N1CCC(C(N)=O)CC1 (stereo not drawn) | 26% |
| CCCCC(Sc1nc2ccccc2c(=O)n1C)C(=O)N1CCC(C(N)=O)CC1 (stereo not drawn) | 48% |
| CCCCC(Sc1nc2ccccc2c(=O)n1-c1ccccc1)C(=O)NC1CC2CCC1C2 (stereo not drawn) | 3% |
| CCCCC(Sc1nc2ccccc2c(=O)n1C(C)C)C(=O)N1CCC(C(N)=O)CC1 (stereo not drawn) | 20% |

Each molecule was assayed against T1, Serine/threonine-protein kinase Chk1 (assay: Inhibition of C-terminal 6-His tagged human Chk1 by HTRF assay in presence of 0.1 mM ATP).

| IC50 | SMILES |
| --- | --- |
| 17 µM | CCCCC(Sc1nc2ccccc2c(=O)n1-c1ccccc1)C(=O)N1CCC(C(N)=O)CC1 (stereo not drawn) |
| 20 µM | CCCCC(Sc1nc2c(O)cccc2c(=O)n1-c1cccc(Cl)c1)C(=O)N1CCC(C(N)=O)CC1 (stereo not drawn) |
| > 100 µM | CCCCC(Sc1nc2cccc(C)c2c(=O)n1-c1cccc(Cl)c1)C(=O)N1CCC(C(N)=O)CC1 (stereo not drawn) |
| 21 µM | CCCCC(Sc1nc2c(OC)cccc2c(=O)n1-c1cccc(Cl)c1)C(=O)N1CCC(C(N)=O)CC1 (stereo not drawn) |
| 2.8 µM | CC(C)CC(Sc1nc2ccccc2c(=O)n1-c1cccc(Cl)c1)C(=O)N1CCC(C(N)=O)CC1 (stereo not drawn) |
| 41 µM | CCCCC(Sc1nc2ccccc2c(=O)n1-c1ccccc1Cl)C(=O)N1CCC(C(N)=O)CC1 (stereo not drawn) |
| > 100 µM | CCCCC(Sc1nc2ccccc2c(=O)n1-c1ccc(Cl)cc1)C(=O)N1CCC(C(N)=O)CC1 (stereo not drawn) |
| 17 µM | CCCCC(Sc1nc2c(C)cccc2c(=O)n1-c1cccc(Cl)c1)C(=O)N1CCC(C(N)=O)CC1 (stereo not drawn) |
| 28 µM | CCCCC(Sc1nc2cc(C)ccc2c(=O)n1-c1cccc(Cl)c1)C(=O)N1CCC(C(N)=O)CC1 (stereo not drawn) |

The next lines start with the molecule.

| SMILES | IC50 |
| --- | --- |
| CCCCC(Sc1nc2ccccc2c(=O)n1-c1ccccc1)C(=O)N1CCN(c2ccccc2)CC1 (stereo not drawn) | 3.3 µM |
| CCCCC(Sc1nc2ccccc2c(=O)n1-c1ccccc1)C(=O)NC12CC3CC(CC(C3)C1)C2 (stereo not drawn) | > 100 µM |
| CCCCC(Sc1nc2ccccc2c(=O)n1-c1ccccc1)C(=O)N1CCC(c2ccccc2)(c2ccccc2)CC1 (stereo not drawn) | 4.5 µM |
| NC(=O)C1CCN(C(=O)C(Sc2nc3ccccc3c(=O)n2-c2cccc(Cl)c2)c2ccccc2)CC1 (stereo not drawn) | 21 µM |
| CCCCC(Sc1nc2ccccc2c(=O)n1-c1ccccc1)C(=O)NC1CCCCC1 (stereo not drawn) | > 100 µM |
| CC(C)C(Sc1nc2ccccc2c(=O)n1-c1cccc(Cl)c1)C(=O)N1CCC(C(N)=O)CC1 (stereo not drawn) | > 100 µM |
| CCCCC(Sc1nc2ccccc2c(=O)n1-c1ccccc1)C(=O)N1CCCC2(CCCNC2)C1 (stereo not drawn) | 3.8 µM |
| CCCCC(Sc1nc2ccccc2c(=O)n1-c1ccccc1)C(=O)N1CCS(=O)(=O)CC1 (stereo not drawn) | 6 µM |
| CCCCC(Sc1nc2ccccc2c(=O)n1-c1ccccc1)C(=O)NC(C)(C)C (stereo not drawn) | > 100 µM |
